Where two headings read alike, the source gives them in different places.
Assays:
[1] = crystal powder, 400 taps at 1 tap/sec, 100 mL container, average of three
Experimental: Here, the “dense specific volume” refers to a value which is obtained by dividing a volume occupied by a powder by a mass when the powder is filled in a container, a certain impact is applied to the container, and then the mass of the powder is measured.
The dense specific volume can be measured, for example, using Multi Tester MT-1001T (manufactured by Seishin Enterprise Co., Ltd.) according to the accompanying manual under the following conditions based on the 17th revision, Pharmacopoeia of Japan.
[Measurement Conditions for Dense Specific Volume]
(§1) Apparatus for use: multi-tester MT-1001T type (manufactured by Seishin Enterprise Co., Ltd.)
(§2) Vibration range: 0.7 mm to 0.8 mm
Specific example of method of measuring dense specific volume: A 100 mL cylindrical container made of stainless steel equipped with an auxiliary cylinder is filled while the crystal is dropped via a 1.18 mm sieve vibrated at a range of 0.7 mm to 0.8 mm. […] The measurement is independently performed three times to determine an average value.

[2] = crystal powder, 1.18 mm sieve, 100 mL container, average of three
Experimental: Here, the “loose specific volume” refers to a value which is obtained by dividing a volume occupied by a powder by a mass when the powder is filled in a container and the mass of the powder is measured.
The loose specific volume can be measured using Multi Tester MT-1001T (manufactured by Seishin Enterprise Co., Ltd.) according to the accompanying manual under the following conditions based on the 17th revision, Pharmacopoeia of Japan.
[Measurement Conditions for Loose Specific Volume]
as §1, §2
Specific example of method of measuring loose specific volume: A 100 mL cylindrical container made of stainless steel is filled while the crystal is dropped via a 1.18 mm sieve vibrated at a range of 0.7 mm to 0.8 mm. Excess powder is carefully rubbed off from the top surface of the container, and the mass of the powder is measured by subtracting the mass of an empty measurement container measured in advance. The measurement is independently performed three times to determine an average value.

[3] = crystal powder, mean of three sites
Excerpt: Here, the “angle of repose” refers to an angle formed by a horizontal plane and a generating line of a cone formed with a powder when the powder is allowed to gently fall onto the horizontal plane through a kind of a funnel.
The angle of repose can be measured using Multi Tester MT-1001T (manufactured by Seishin Enterprise Co., Ltd.) according to the accompanying manual under the following conditions.
[Measurement Conditions for Angle of Repose]
as §1, §2
Specific example of method of measuring angle of repose: The crystal is piled on an repose angle table (component number: MT-1028) while dropped via a 1.18 mm sieve vibrated at a range of 0.7 mm to 0.8 mm. The repose angle table is rotated without giving vibration, angles are read at three sites, and an arithmetic mean thereof is determined to be the angle of repose.

[4] = crystal powder, after three impacts, mean of three sites
Excerpt: Here, the “angle of rupture” refers to an angle formed by a horizontal plane and a generating line of a cone which is formed when a certain impact is applied indirectly to a cone formed with a powder when the powder is allowed to gently fall onto the horizontal plane through a kind of a funnel.
The angle of rupture can be measured using Multi Tester MT-1001T (manufactured by Seishin Enterprise Co., Ltd.) according to the accompanying manual by the following method.
A weight attached to the bottom of a repose angle table unit (component number: MT-1028) is slowly lifted under a tapping table and allowed to fall after the measurement of the angle of repose. This operation is repeated three times. In the same manner as the method of measuring the angle of repose, angles are read at three sites, and the arithmetic mean thereof is determined to be the angle of rupture.

Substance	Dense specific volume [1] [mg/L]	Loose specific volume [2] [mg/L]	Angle of repose [3] [degree]	Angle of rupture [4] [degree]	also measured
cytidine diphosphate choline	–	–	–	–	concentration of the cytidine diphosphate choline in filtrate (solubility) (ethanol concentration 50% by volume, 30° C.): 282000 µg/mL; concentration of the cytidine diphosphate choline in filtrate (solubility) (ethanol concentration 50% by volume, 35° C.): 286000 µg/mL; concentration of the cytidine diphosphate choline in filtrate (solubility) (ethanol concentration 50% by volume, 40° C.): 317000 µg/mL; concentration of the cytidine diphosphate choline in filtrate (solubility) (ethanol concentration 66% by volume, 30° C.): 27600 µg/mL; concentration of the cytidine diphosphate choline in filtrate (solubility) (ethanol concentration 66% by volume, 35° C.): 31600 µg/mL; concentration of the cytidine diphosphate choline in filtrate (solubility) (ethanol concentration 66% by volume, 40° C.): 54200 µg/mL; concentration of the cytidine diphosphate choline in filtrate (solubility) (ethanol concentration 71% by volume, 30° C.): 8490 µg/mL; concentration of the cytidine diphosphate choline in filtrate (solubility) (ethanol concentration 71% by volume, 35° C.): 9700 µg/mL; concentration of the cytidine diphosphate choline in filtrate (solubility) (ethanol concentration 71% by volume, 40° C.): 11100 µg/mL; concentration of the cytidine diphosphate choline in filtrate (solubility) (ethanol concentration 75% by volume, 30° C.): 3230 µg/mL; concentration of the cytidine diphosphate choline in filtrate (solubility) (ethanol concentration 75% by volume, 35° C.): 3650 µg/mL; concentration of the cytidine diphosphate choline in filtrate (solubility) (ethanol concentration 75% by volume, 40° C.): 4040 µg/mL; concentration of the cytidine diphosphate choline in filtrate (solubility) (ethanol concentration 78% by volume, 30° C.): 1400 µg/mL; concentration of the cytidine diphosphate choline in filtrate (solubility) (ethanol concentration 78% by volume, 35° C.): 1680 µg/mL; concentration of the cytidine diphosphate choline in filtrate (solubility) (ethanol concentration 78% by volume, 40° C.): 1690 µg/mL; concentration of the cytidine diphosphate choline in filtrate (solubility) (ethanol concentration 80% by volume, 30° C.): 760 µg/mL; concentration of the cytidine diphosphate choline in filtrate (solubility) (ethanol concentration 80% by volume, 35° C.): 840 µg/mL; concentration of the cytidine diphosphate choline in filtrate (solubility) (ethanol concentration 80% by volume, 40° C.): 920 µg/mL
cytidine diphosphate choline [Comparative Example 1]	1.49	2.33	49.6	40.1	–
cytidine diphosphate choline [Comparative Example 3]	2.19	4.19	57.4	50.8	–
cytidine diphosphate choline [Comparative Example 4]	2.93	5.74	48.7	46.4	–
cytidine diphosphate choline [Example 1]	2.13	3.42	46.9	39.6	–
cytidine diphosphate choline [Example 2]	1.82	2.55	47.2	38.7	–
cytidine diphosphate choline [Example 3]	2.19	3.58	52.8	47.1	–
cytidine diphosphate choline [Example 4]	1.55	2.00	43.4	41.6	–
cytidine diphosphate choline [Product of company A]	1.67	2.81	56.6	48.7	–
